Holding throughout (conditions): competition binding
For one experiment, the target named is T1, FLT3 (Homo sapiens, UniProt P36888).
T1 construct: made in house
T1 sequence (P36888 27-993): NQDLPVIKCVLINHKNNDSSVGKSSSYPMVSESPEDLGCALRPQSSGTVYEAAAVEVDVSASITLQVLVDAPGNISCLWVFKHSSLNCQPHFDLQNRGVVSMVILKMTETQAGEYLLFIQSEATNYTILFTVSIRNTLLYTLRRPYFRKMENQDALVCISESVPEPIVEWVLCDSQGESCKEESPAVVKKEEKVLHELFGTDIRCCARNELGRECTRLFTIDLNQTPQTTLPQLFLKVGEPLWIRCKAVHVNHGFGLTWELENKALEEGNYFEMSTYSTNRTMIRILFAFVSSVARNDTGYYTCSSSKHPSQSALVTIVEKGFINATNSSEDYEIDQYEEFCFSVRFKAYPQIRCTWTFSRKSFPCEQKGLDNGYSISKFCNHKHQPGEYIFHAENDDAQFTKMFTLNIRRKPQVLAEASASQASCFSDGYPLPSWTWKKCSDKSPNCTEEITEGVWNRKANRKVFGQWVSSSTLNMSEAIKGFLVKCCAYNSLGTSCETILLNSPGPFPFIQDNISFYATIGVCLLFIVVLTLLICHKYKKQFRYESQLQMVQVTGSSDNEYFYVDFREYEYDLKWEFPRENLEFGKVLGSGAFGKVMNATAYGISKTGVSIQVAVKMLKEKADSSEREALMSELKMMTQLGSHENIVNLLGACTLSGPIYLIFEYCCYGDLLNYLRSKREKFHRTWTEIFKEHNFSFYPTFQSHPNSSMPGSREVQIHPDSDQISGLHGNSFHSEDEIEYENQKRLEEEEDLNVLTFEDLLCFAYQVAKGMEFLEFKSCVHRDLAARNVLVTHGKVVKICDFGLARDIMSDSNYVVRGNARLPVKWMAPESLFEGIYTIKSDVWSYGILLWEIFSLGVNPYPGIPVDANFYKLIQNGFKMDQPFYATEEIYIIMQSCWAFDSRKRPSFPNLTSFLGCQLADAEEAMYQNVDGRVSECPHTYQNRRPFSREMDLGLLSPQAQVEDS
Nature of the experiment: Competition binding assay, FLT3 Kd. Put shortly: (§1)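 Kinases, either T7 phage fusions or HEK-293-expressed and DNA-tagged, competed with test compounds for immobilized biotinylated affinity ligand on streptavidin beads in binding buffer (20% SeaBlock, 0.17×PBS, 0.05% Tween 20, 6 mM DTT). After 1 hour at room temperature, bead-bound kinase was eluted and quantified by qPCR; Kd from eleven-point threefold dilutions.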

Another experiment concerns the target T2, KIT (Homo sapiens, UniProt P10721).
T2 construct: made in house
Put plainly: Competition binding assay, KIT Kd. The method, boiled down:
as §1

The target of a further experiment is CSF1R (Homo sapiens, UniProt P07333). Put plainly: Competition binding assay, CSF1R Kd. Also on record: made in house. The method, boiled down: as §1

Molecules are shown by their SMILES.

T2 sequence (P10721 26-976): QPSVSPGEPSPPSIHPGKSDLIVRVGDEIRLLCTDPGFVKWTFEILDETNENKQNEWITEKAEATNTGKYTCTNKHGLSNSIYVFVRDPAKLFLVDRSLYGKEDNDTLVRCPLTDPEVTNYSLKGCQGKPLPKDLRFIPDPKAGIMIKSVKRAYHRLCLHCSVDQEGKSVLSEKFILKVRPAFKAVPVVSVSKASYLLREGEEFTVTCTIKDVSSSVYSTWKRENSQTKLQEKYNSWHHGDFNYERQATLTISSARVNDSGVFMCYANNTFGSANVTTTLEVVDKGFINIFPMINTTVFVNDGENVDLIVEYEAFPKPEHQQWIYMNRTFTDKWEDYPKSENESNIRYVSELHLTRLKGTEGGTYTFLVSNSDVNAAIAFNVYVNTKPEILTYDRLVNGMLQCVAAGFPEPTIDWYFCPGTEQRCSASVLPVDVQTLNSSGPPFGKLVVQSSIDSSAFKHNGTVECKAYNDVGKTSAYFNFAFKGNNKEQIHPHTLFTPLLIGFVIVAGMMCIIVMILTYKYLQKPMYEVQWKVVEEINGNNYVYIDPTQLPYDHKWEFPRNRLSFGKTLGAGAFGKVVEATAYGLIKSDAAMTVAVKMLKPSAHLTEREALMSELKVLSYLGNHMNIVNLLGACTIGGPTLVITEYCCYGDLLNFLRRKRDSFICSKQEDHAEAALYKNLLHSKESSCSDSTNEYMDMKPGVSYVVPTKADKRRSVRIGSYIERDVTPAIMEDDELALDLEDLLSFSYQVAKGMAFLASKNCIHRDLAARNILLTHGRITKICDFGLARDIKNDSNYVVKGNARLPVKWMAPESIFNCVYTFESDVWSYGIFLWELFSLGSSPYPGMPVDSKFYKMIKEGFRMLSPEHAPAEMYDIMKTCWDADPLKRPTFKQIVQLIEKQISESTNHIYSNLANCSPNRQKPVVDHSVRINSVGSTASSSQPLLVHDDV
CSF1R, sequence (P07333 20-972): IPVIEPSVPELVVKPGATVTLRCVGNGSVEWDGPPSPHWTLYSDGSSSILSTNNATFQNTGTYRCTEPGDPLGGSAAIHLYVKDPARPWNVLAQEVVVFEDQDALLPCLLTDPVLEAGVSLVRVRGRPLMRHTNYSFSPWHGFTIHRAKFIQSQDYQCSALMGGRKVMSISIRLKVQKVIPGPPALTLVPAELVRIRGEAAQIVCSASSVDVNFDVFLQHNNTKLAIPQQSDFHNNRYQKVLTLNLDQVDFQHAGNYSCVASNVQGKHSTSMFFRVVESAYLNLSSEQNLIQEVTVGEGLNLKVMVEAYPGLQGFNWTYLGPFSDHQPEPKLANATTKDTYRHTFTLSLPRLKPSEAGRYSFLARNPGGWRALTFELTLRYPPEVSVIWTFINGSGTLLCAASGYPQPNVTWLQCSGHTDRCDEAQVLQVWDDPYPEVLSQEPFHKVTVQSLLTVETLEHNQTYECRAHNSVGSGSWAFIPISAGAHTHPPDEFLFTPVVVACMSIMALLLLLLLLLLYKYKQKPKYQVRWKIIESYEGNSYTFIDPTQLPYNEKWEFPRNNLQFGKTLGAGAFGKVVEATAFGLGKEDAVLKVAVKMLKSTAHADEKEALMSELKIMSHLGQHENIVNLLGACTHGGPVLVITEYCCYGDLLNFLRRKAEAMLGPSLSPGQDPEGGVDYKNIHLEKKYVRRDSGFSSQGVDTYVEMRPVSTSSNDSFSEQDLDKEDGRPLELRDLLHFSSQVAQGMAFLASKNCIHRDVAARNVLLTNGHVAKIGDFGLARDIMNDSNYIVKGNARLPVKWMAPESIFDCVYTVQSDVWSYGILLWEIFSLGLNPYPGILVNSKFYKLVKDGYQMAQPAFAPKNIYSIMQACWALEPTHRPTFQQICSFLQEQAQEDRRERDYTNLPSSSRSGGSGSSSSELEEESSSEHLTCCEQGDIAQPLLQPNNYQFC

A word on the Kd: it is the free concentration of one partner at which half of the binding sites on the other are occupied at equilibrium, for simple one-to-one binding. Read a high Kd as a looser complex. For `O[C@@H]1CCCC[C@H]1Nc1nc2ccc(Cc3cnc4cccnn34)cc2s1` [Example 131, (1R,2R)-2-((6-(imidazo[1,2-b]pyridazin-3-ylmethyl)benzo[d]thiazol-2-yl)amino)cyclohexanol], the Kd on FLT3 is not above 200 nM; on KIT, not above 100 nM; at CSF1R it was not above 5 nM.

On to `O[C@@H]1CCCC[C@H]1Nc1nc2ccc(Cn3cnc4cc(F)cnc43)cc2o1` [Example 132, (1R,2R)-2-((6-((6-fluoro-3H-imidazo[4,5-b]pyridin-3-yl)methyl)benzo[d]oxazol-2-yl)amino)cyclohexanol], for which the Kd at FLT3 was not above 200 nM; at KIT, not above 100 nM; at CSF1R, not above 5 nM.

`OC[C@@H]1CCCC[C@H]1Nc1nc2ccc(Cn3cnc4cc(Br)cnc43)cc2s1` [Example 133, ((1R,2R)-2-((6-((6-bromo-3H-imidazo[4,5-b]pyridin-3-yl)methyl)benzo[d]thiazol-2-yl)amino)cyclohexyl)methanol]: the figures for the Kd at FLT3, on KIT and at CSF1R were 1000 to 5000 nM, 100 to 500 nM and 5 to 20 nM, respectively.

Regarding `Cn1nnnc1-c1cnc2c(c1)ncn2Cc1ccc2nc(N[C@@H]3CCCC[C@H]3O)sc2c1` [Example 134, (1R,2R)-2-((6-((6-(1-methyl-1H-tetrazol-5-yl)-3H-imidazo[4,5-b]pyridin-3-yl)methyl)benzo[d]thiazol-2-yl)amino)cyclohexanol], the Kd lay within 200 to 1000 nM on FLT3, 100 to 500 nM on KIT and 5 to 20 nM at CSF1R.

For the molecule `OC[C@H]1CCCC[C@H]1Nc1nc2ccc(Cn3cnc4cc(Br)cnc43)cc2s1` [Example 136, ((1S,2R)-2-((6-((6-bromo-3H-imidazo[4,5-b]pyridin-3-yl)methyl)benzo[d]thiazol-2-yl)amino)cyclohexyl)methanol], the dissociation constant (Kd) at FLT3 was 1000 to 5000 nM; at KIT it was not above 100 nM; at CSF1R, 5 to 20 nM.

Regarding `O[C@@H]1CCCC[C@H]1Nc1nc2ccc(Cn3cnc4cc(Cl)c(Cl)nc43)cc2s1` [Example 137, (1R,2R)-2-((6-((5,6-dichloro-3H-imidazo[4,5-b]pyridin-3-yl)methyl)benzo[d]thiazol-2-yl)amino)cyclohexanol], the values for the dissociation constant (Kd) on FLT3, at KIT and at CSF1R were 200 to 1000 nM, not above 100 nM and not above 5 nM, respectively.

Take `CCOc1ccc2c(c1)ncn2Cc1ccc2nc(N[C@@H]3CCCC[C@H]3O)sc2c1` [Example 138, (1R,2R)-2-((6-((5-ethoxy-1H-benzo[d]imidazol-1-yl)methyl)benzo[d]thiazol-2-yl)amino)cyclohexanol]: the dissociation constant Kd is 200 to 1000 nM on FLT3, not above 100 nM at KIT and not above 5 nM on CSF1R.

For the molecule `N#Cc1cc2ncn(Cc3ccc4nc(N[C@@H]5CCCC[C@H]5O)sc4c3)c2nc1C#N` [Example 139, 3-((2-(((1R,2R)-2-hydroxycyclohexyl)amino)benzo[d]thiazol-6-yl)methyl)-3H-imidazo[4,5-b]pyridine-5,6-dicarbonitrile], the Kd is 200 to 1000 nM on FLT3, 100 to 500 nM on KIT and 20 to 50 nM on CSF1R.

Consider `N#Cc1cnc2c(c1)ncn2Cc1ccc2nc(N[C@@H]3CCCC[C@H]3CO)sc2c1` [Example 140, 3-((2-(((1R,2R)-2-(hydroxymethyl)cyclohexyl)amino)benzo[d]thiazol-6-yl)methyl)-3H-imidazo[4,5-b]pyridine-6-carbonitrile], for which the equilibrium dissociation constant (Kd) at FLT3 was more than 5000 nM; at KIT, 500 to 2000 nM; at CSF1R, 5 to 20 nM.

In the case of `O[C@@H]1CCCC[C@H]1Nc1nc2ccc(Cn3cnc4cc(-n5cccn5)cnc43)cc2s1` [Example 141, (1R,2R)-2-((6-((6-(1H-pyrazol-1-yl)-3H-imidazo[4,5-b]pyridine-3-yl)methyl)benzo[d]thiazol-2-yl)amino)cyclohexanol], the results for the dissociation constant Kd at FLT3, at KIT and at CSF1R were 200 to 1000 nM, not above 100 nM and not above 5 nM, respectively.

Take `O[C@@H]1CCCC[C@H]1Nc1nc2ccc(Cc3cnc4cccnn34)cc2o1` [Example 142, (1R,2R)-2-((6-(imidazo[1,2-b]pyridazin-3-ylmethyl)benzo[d]oxazol-2-yl)amino)cyclohexanol]: the results for the dissociation constant Kd at FLT3, at KIT and on CSF1R were not above 200 nM, not above 100 nM and not above 5 nM, respectively.

The record behind these values is patent US9938261B2, “Heterocyclic compounds and methods of use thereof” (AMBIT BIOSCIENCES CORPORATION, priority 2011, dated 2018).
